In patent US20150176022A1, “HERBICIDE-RESISTANT SUNFLOWER PLANTS, POLYNUCLEOTIDES ENCODING HERBICIDE=RESISTANT ACETO HYDROXY ACID SYNTHASE LARGE SUBUNIT PROTEINS, AND METHODS OF USE” (priority 2013, published 2015):

Tests used:
Assay type in all cases: in vivo, Helianthus annuus
[1] = test system: sunflower GM40 (Manteiner Line, A122T); assay: Greenhouse whole-plant imazapir dose response (Example 8); conditions: 14 DAT
Method: (§1) A greenhouse study was conducted to quantify and contrast the imazapir sensitivity of the mutants A122T and A205V in different genetic backgrounds at the whole plant level in sunflower. Seeds of the different sunflower lines that were used in this study were obtained under field conditions.
(§2) Seeds were sown in Petri dishes and, after germination, plantlets were transplanted to pots of 10 cm of diameter in a potting media consisting of equal parts of vermiculite, soil and sand. Plants were grown in a greenhouse under natural light conditions supplemented with 400 W sodium halide lamps to provide a 16 hrs daylength. Day/night temperatures were 25 and 20° C., respectively. At the V2 stage 10 plants of each genotype were randomly assigned to each treatment consisting of […] imazapir doses (0, 40, 80, 160, 240, 320, 400 and 480 g ai/ha), and a zero-time biomass determination. Experiment was arranged as a randomized block design with a full factorial (sunflower line×treatment) arrangement of treatments and 10 replications.
(§3) On the day of herbicide application ten plants of each genotype were cut at the cotyledonal node and dried at 60° C. for 48 hrs zero-time for dried weight determination. […] Height was determined as the distance between the cotyledonal node and the apex of each plant. For root biomass determination, each plant was taken from the pot and the potting media was washed out from the roots. Above ground biomass data from each line were converted to biomass accumulation after application by subtracting the appropriate average zero-time biomass from each sample. Dry biomass data were converted to percentages of the untreated control plants within each line to allow direct comparisons between groups.

[2] = test system: sunflower IB920 (Manteiner Line, A205V); assay: as above; conditions: 14 DAT
Method: as §1, §2, §3

[3] = test system: sunflower TH11 (Hybrid, A122T); assay: as above; conditions: 14 DAT
Method: as §1, §2, §3

[4] = test system: A122T versus A205V sunflower genotypes; assay: Greenhouse whole-plant imazapir dose response (Example 8), difference between mutants; conditions: difference of group means, 14 DAT
Method: as §1, §2, §3

[5] = test system: M2 plants of EMS-treated BTK47; assay: Selection of imidazolinone-resistant M2 plants (Example 1); conditions: approximately 590,000 M2 plants sprayed at V2-V4 stage; 80 g ai/ha; greenhouse
Method: BTK47, a Helianthus annuus L. breeding line, was chemically mutated as follows. Sixty thousand seeds of the BTK47 line were treated with a solution of ethyl methanesulfonate (EMS) for 15 hours. The treated seeds were then sown under field conditions on Dec. 16, 2002 at Nidera Experimental Station in Venado Tuerto, Santa Fe, Argentina. Approximately 30,000 M1 plants flowered and were covered with bags in order to self-pollinate each plant. Each plant was harvested and threshed by hand. On May 10, 2003 at Nidera Experimental Station in Formosa, 20 M2 seeds from each capitulum were sown under greenhouse conditions. Approximately 590,000 plants were sprayed at V2-V4 stage with imazapyr at a rate of 80 g ai/ha. […] M3 seeds from each of these eight plants were evaluated for their resistance to imazapyr. Out of these eight M3 families, one family (S4897) segregated for herbicide resistance at a ratio of 1 resistant (i.e., conferring tolerance to commercial rates of imidazolinone herbicides): 2 intermediate (i.e., partially resistant): 1 susceptible. Fully fertile resistant plants were self pollinated and harvested in order to propagate the line S4897.

With `CC(C)C1(C)N=C(c2ncccc2C(=O)O)NC1=O` (stereo not shown) [imazapir, imazapyr] the “biomass accumulation (dry biomass, % of untreated)” value ([1]; 0.5× (40 g ai/ha)) was 96.5%, the “plant height (% of untreated)” value ([1]; 0.5× (40 g ai/ha)) was 99.6% and the “root dry weight (% of untreated)” value ([1]; 0.5× (40 g ai/ha)) was 100%. For the same compound, the “biomass accumulation (dry biomass, % of untreated)” value ([1]; 1× (80 g ai/ha)) was 94.1%, the “plant height (% of untreated)” value ([1]; 1× (80 g ai/ha)) was 97.4% and the “root dry weight (% of untreated)” value ([1]; 1× (80 g ai/ha)) was 100%. The “biomass accumulation (dry biomass, % of untreated)” value ([1]; 2× (160 g ai/ha)) was 97.6%, the “plant height (% of untreated)” value ([1]; 2× (160 g ai/ha)) was 95.2% and the “root dry weight (% of untreated)” value ([1]; 2× (160 g ai/ha)) was 100%. The “biomass accumulation (dry biomass, % of untreated)” value ([1]; 3× (240 g ai/ha)) was 95.8%, the “plant height (% of untreated)” value ([1]; 3× (240 g ai/ha)) was 93.0% and the “root dry weight (% of untreated)” value ([1]; 3× (240 g ai/ha)) was 92.2%. The “biomass accumulation (dry biomass, % of untreated)” value ([1]; 4× (320 g ai/ha)) was 88.3%, the “plant height (% of untreated)” value ([1]; 4× (320 g ai/ha)) was 93.0% and the “root dry weight (% of untreated)” value ([1]; 4× (320 g ai/ha)) was 96.1%. For the same compound, the “biomass accumulation (dry biomass, % of untreated)” value ([1]; 5× (400 g ai/ha)) was 85.6%, the “plant height (% of untreated)” value ([1]; 5× (400 g ai/ha)) was 93.9% and the “root dry weight (% of untreated)” value ([1]; 5× (400 g ai/ha)) was 84.2%. For the same compound, the “biomass accumulation (dry biomass, % of untreated)” value ([1]; 6× (480 g ai/ha)) was 76.8%, the “plant height (% of untreated)” value ([1]; 6× (480 g ai/ha)) was 84.3% and the “root dry weight (% of untreated)” value ([1]; 6× (480 g ai/ha)) was 74.3%. The “biomass accumulation (dry biomass, % of untreated)” value ([2]; 0.5× (40 g ai/ha)) was 93.9%, the “plant height (% of untreated)” value ([2]; 0.5× (40 g ai/ha)) was 96.2% and the “root dry weight (% of untreated)” value ([2]; 0.5× (40 g ai/ha)) was 94.0%. For the same compound, the “biomass accumulation (dry biomass, % of untreated)” value ([2]; 1× (80 g ai/ha)) was 87.9%, the “plant height (% of untreated)” value ([2]; 1× (80 g ai/ha)) was 80.0% and the “root dry weight (% of untreated)” value ([2]; 1× (80 g ai/ha)) was 89.6%. The “biomass accumulation (dry biomass, % of untreated)” value ([2]; 2× (160 g ai/ha)) was 58.8%, the “plant height (% of untreated)” value ([2]; 2× (160 g ai/ha)) was 61.5% and the “root dry weight (% of untreated)” value ([2]; 2× (160 g ai/ha)) was 50.7%. The “biomass accumulation (dry biomass, % of untreated)” value ([2]; 3× (240 g ai/ha)) was 46.4%, the “plant height (% of untreated)” value ([2]; 3× (240 g ai/ha)) was 40.9% and the “root dry weight (% of untreated)” value ([2]; 3× (240 g ai/ha)) was 37.3%. The “biomass accumulation (dry biomass, % of untreated)” value ([2]; 4× (320 g ai/ha)) was 35.5%, the “plant height (% of untreated)” value ([2]; 4× (320 g ai/ha)) was 27.9% and the “root dry weight (% of untreated)” value ([2]; 4× (320 g ai/ha)) was 32.8%. For the same compound, the “plant height (% of untreated)” value ([2]; 5× (400 g ai/ha)) was 30.0%, the “root dry weight (% of untreated)” value ([2]; 5× (400 g ai/ha)) was 25.4% and the “biomass accumulation (dry biomass, % of untreated)” value ([2]; 6× (480 g ai/ha)) was 29.4%. The “root dry weight (% of untreated)” value ([2]; 6× (480 g ai/ha)) was 19.4%, the “Phytotoxicity Index” value ([3]; 0.5× (40 g ai/ha)) was 0.4 and the “biomass accumulation (dry biomass, % of untreated)” value ([3]; 0.5× (40 g ai/ha)) was 96.6%. For the same compound, the “plant height (% of untreated)” value ([3]; 0.5× (40 g ai/ha)) was 100.4%, the “root dry weight (% of untreated)” value ([3]; 0.5× (40 g ai/ha)) was 100% and the “Phytotoxicity Index” value ([3]; 1× (80 g ai/ha)) was 0.4. The “biomass accumulation (dry biomass, % of untreated)” value ([3]; 1× (80 g ai/ha)) was 93.9%, the “plant height (% of untreated)” value ([3]; 1× (80 g ai/ha)) was 99.9% and the “root dry weight (% of untreated)” value ([3]; 1× (80 g ai/ha)) was 99.0%. For the same compound, the “Phytotoxicity Index” value ([3]; 2× (160 g ai/ha)) was 0.4, the “biomass accumulation (dry biomass, % of untreated)” value ([3]; 2× (160 g ai/ha)) was 81.6% and the “plant height (% of untreated)” value ([3]; 2× (160 g ai/ha)) was 92.0%. The “root dry weight (% of untreated)” value ([3]; 2× (160 g ai/ha)) was 86.1%, the “Phytotoxicity Index” value ([3]; 3× (240 g ai/ha)) was 0.5 and the “biomass accumulation (dry biomass, % of untreated)” value ([3]; 3× (240 g ai/ha)) was 75.8%. For the same compound, the “plant height (% of untreated)” value ([3]; 3× (240 g ai/ha)) was 90.5%, the “root dry weight (% of untreated)” value ([3]; 3× (240 g ai/ha)) was 81.5% and the “Phytotoxicity Index” value ([3]; 4× (320 g ai/ha)) was 1.0. The “biomass accumulation (dry biomass, % of untreated)” value ([3]; 4× (320 g ai/ha)) was 75.0%, the “plant height (% of untreated)” value ([3]; 4× (320 g ai/ha)) was 90.8% and the “root dry weight (% of untreated)” value ([3]; 4× (320 g ai/ha)) was 72.6%. For the same compound, the “Phytotoxicity Index” value ([3]; 5× (400 g ai/ha)) was 2.0, the “biomass accumulation (dry biomass, % of untreated)” value ([3]; 5× (400 g ai/ha)) was 60.1% and the “plant height (% of untreated)” value ([3]; 5× (400 g ai/ha)) was 84.4%. The “root dry weight (% of untreated)” value ([3]; 5× (400 g ai/ha)) was 68.9%, the “Phytotoxicity Index” value ([3]; 6× (480 g ai/ha)) was 2.5 and the “biomass accumulation (dry biomass, % of untreated)” value ([3]; 6× (480 g ai/ha)) was 59.6%. For the same compound, the “plant height (% of untreated)” value ([3]; 6× (480 g ai/ha)) was 84.4%, the “root dry weight (% of untreated)” value ([3]; 6× (480 g ai/ha)) was 45.3% and the “Phytotoxicity Index, Dif A205V-A122T” value ([4]; 0.5× (40 g ai/ha)) was −0.29. The “biomass, Dif A122T-A205V” value ([4]; 0.5× (40 g ai/ha)) was 4.3%, the “plant height, Dif A122T-A205V” value ([4]; 0.5× (40 g ai/ha)) was 4.9% and the “root dry weight, Dif A122T-A205V” value ([4]; 0.5× (40 g ai/ha)) was 12.7%. The “Phytotoxicity Index, Dif A205V-A122T” value ([4]; 1× (80 g ai/ha)) was −0.29, the “biomass, Dif A122T-A205V” value ([4]; 1× (80 g ai/ha)) was 14.5% and the “plant height, Dif A122T-A205V” value ([4]; 1× (80 g ai/ha)) was 9.4%. The “root dry weight, Dif A122T-A205V” value ([4]; 1× (80 g ai/ha)) was 26.7%, the “Phytotoxicity Index, Dif A205V-A122T” value ([4]; 2× (160 g ai/ha)) was 1.87 and the “biomass, Dif A122T-A205V” value ([4]; 2× (160 g ai/ha)) was 33.2%. For the same compound, the “plant height, Dif A122T-A205V” value ([4]; 2× (160 g ai/ha)) was 28.0%, the “root dry weight, Dif A122T-A205V” value ([4]; 2× (160 g ai/ha)) was 43.6% and the “Phytotoxicity Index, Dif A205V-A122T” value ([4]; 3× (240 g ai/ha)) was 4.81. The “biomass, Dif A122T-A205V” value ([4]; 3× (240 g ai/ha)) was 45.3%, the “plant height, Dif A122T-A205V” value ([4]; 3× (240 g ai/ha)) was 45.3% and the “root dry weight, Dif A122T-A205V” value ([4]; 3× (240 g ai/ha)) was 50.2%. The “Phytotoxicity Index, Dif A205V-A122T” value ([4]; 4× (320 g ai/ha)) was 6.92, the “biomass, Dif A122T-A205V” value ([4]; 4× (320 g ai/ha)) was 52.4% and the “plant height, Dif A122T-A205V” value ([4]; 4× (320 g ai/ha)) was 59.9%. The “root dry weight, Dif A122T-A205V” value ([4]; 4× (320 g ai/ha)) was 50.3%, the “Phytotoxicity Index, Dif A205V-A122T” value ([4]; 5× (400 g ai/ha)) was 7.38 and the “biomass, Dif A122T-A205V” value ([4]; 5× (400 g ai/ha)) was 46.9%. The “plant height, Dif A122T-A205V” value ([4]; 5× (400 g ai/ha)) was 57.8%, the “root dry weight, Dif A122T-A205V” value ([4]; 5× (400 g ai/ha)) was 47.9% and the “Phytotoxicity Index, Dif A205V-A122T” value ([4]; 6× (480 g ai/ha)) was 7.03. For the same compound, the “biomass, Dif A122T-A205V” value ([4]; 6× (480 g ai/ha)) was 44.6%, the “plant height, Dif A122T-A205V” value ([4]; 6× (480 g ai/ha)) was 54.0% and the “root dry weight, Dif A122T-A205V” value ([4]; 6× (480 g ai/ha)) was 37.3%. For the same compound, the “plants surviving the herbicide treatment” value [5] was “Eight plants survived”.
